In test [1] the test system is Split3WJ.1_up_5IB+Split3WJ.1_down_3FAM (trans 3WJ as 1:1 mix). The experiment in a line: Fluorescence quenching binding assay (FAM / Iowa Black). To be noted: two concentration points. How it is done:
This assay will be used to test binding of compounds for RNA three way junction (such as a 38 nt construct). This is a fluorescence quenching assay utilizing FAM as fluorescence tag and Iowa Black as quencher. Tags are attached at the 3′ and 5′ end, respectively. Stable formation of MW upon compound binding would lead to quenching of the FAM fluorescence due to close proximity of the Iowa Black tag. Assay readout: FAM (485-520 nm) Fluorescence Intensity.
Assay sample buffer used: 10 mM CacoK pH 7.2, 30 mM NaCl. Buffer preparation in Dnase/Rnase Free distilled water (Gibco Life Technologies).
Dilute the RNA 1:10 (final 10 μM) in Assay Buffer.
Heat up the diluted RNA up to 90° C. for 5 min (sealed Eppendorf Tube).
Cool down the RNA probe slowly to RT.
Dilute the compounds to 800 μM in DMSO (Assay: 8 μM).
Final concentrations in the sample: 1-10 μM RNA, 8 μM compound, 1% DMSO
Pipet 25 μL Sample Solution into Greiner cat #784076, black, 384
Measure the 96 plate with the LightCycler480 (Channel: 485/520 nm).
The fluorescence quenching experiment was repeated for compounds Ark0000013 and Ark0000014 to measure binding with:
B) Split3WJ.1_up_5IB+Split3WJ.1_down_3FAM (trans 3WJ as 1:1 mix)
Both cmpds were tested at two concentration points in the fluorescence quenching assays to assess effect upon RNA constructs utilized in the study. […]

Test [2] has as its system RNA3WJ_0.0.0_5B_3FAM (3WJ RNA). The experiment in a line: Ligand observed NMR binding assay (Watergate, WaterLOGSY, STD). To be noted: 10 μM RNA, +/− 200 Ark000013. How it is done: Purpose: Test direct binding of compounds for RNA three way junction (3WJ). This ligand observed NMR assay is used to test direct binding of compounds to an RNA target, for example a 38 nt synthetic RNA 3WJ and others as described below. Ligand observed assay was used for hit validation studies of single compounds. Established experiments were eventually used to perform group epitope mapping, described below.
Sample buffer: 10 mM Cacodylate, pH 7.1; 0.68 g [MW: 137.99 g/mol]; fill up to 500 ml with Millipore H2O.
Compound Stocks: Tool compounds provided as dry powder were prepared as 50 mM stock solution in 100% d6-DMSO. Test compounds provided as dry powder were prepared as 50 mM stock solution in 100% d6-DMSO. Stock solutions of 50 mM concentration in d6-DMSO were stored at 4° C.
NMR spectrometer: Bruker AVANCE600 spectrometer operating at 600.0 MHz for ^1H. 5-mm z-gradient TXI Cryoprobe.
Dried RNA pellet is solubilized in sample buffer 10 mM Cacodylate pH 7.1. […]
Spectra were analyzed for direct binding signals of the compounds. […]
ARK0000013 was also tested in the NMR binding assay. Test Sample: 10 μM RNA3WJ_0.0.0_5B_3FAM+/−200 Ark000013. ^1H 1D Watergate & WaterLOGSY spectra recorded of Ark000013 were used as a reference (Note: aromatic signals observed between 7.4-7.9 ppm and due to symmetry of the center triptycene scaffold all 9 protons are magnetically equivalent).

Take `CN(CCCN)CCCNC(=O)c1ccc2c(c1)C1c3cc(C(=O)NCCCN(C)CCCN)ccc3C2c2ccc(C(=O)NCCCN(C)CCCN)cc21` [Ark000013, N^2,N^7,N^15-tris(3-((3-aminopropyl)(methyl)amino)propyl)-9,10-dihydro-9,10-[1,2]benzenoanthracene-2,7,15-tricarboxamide]: the “fluorescence quenching effect (FAM fluorescence signal)” value in test [1] is “significant concentration dependent effect”. For the same compound, in test [2], the STD signals result is “small signals” and the “WaterLOGSY signals in the presence of RNA” value is given as “clear reduction of negative sign signals”.
